Literature values as cited in patent US20120135069A1, “NANONIZED TESTOSTERON FORMULATIONS FOR IMPROVED BIOAVAILABILITY” (PHARMASOL GMBH, priority 2009, published 2012).

Assays:
[1] = in vivo
[2] = taken orally

Compound	liver toxicity [1]	fraction of the drug immediately metabolised by liver enzymes (first pass effect) [2]
C[C@]12CCC(=O)C=C1CC[C@@H]1[C@@H]2CC[C@@]2(C)[C@H]1CC[C@]2(C)O [methyltestosterone]	very liver toxic	
C[C@]12CC[C@H]3[C@@H](CCC4=CC(=O)CC[C@@]43C)[C@@H]1CC[C@@H]2O [testosterone]		about 99%
